Here are results for 36 compounds from ChEMBL document CHEMBL1155953, “Synthesis and biological evaluation of C-12' substituted vinflunine derivatives” (Bioorg Med Chem Lett, 2008).

This assay relates to A549. Description: Cytotoxicity against human A549 cells by SRB assay. The format is functional, cell-based. In general terms: The SRB assay estimates cell density from bound dye.
The IC50 is the concentration that gives 50% inhibition. A lower IC50 goes with higher potency. As for `CC[C@]12C=CCN3CC[C@@]4(c5cc([C@@]6(C(=O)OC)C[C@H]7C[C@@H](C(C)(F)F)CN(Cc8c6[nH]c6ccc(-c9ccoc9)cc86)C7)c(OC)cc5N(C)[C@H]4[C@@](O)(C(=O)OC)[C@@H]1OC(C)=O)[C@@H]32`, the IC50 was 2280 nM. Under `CC[C@]12C=CCN3CC[C@@]4(c5cc([C@@]6(C(=O)OC)C[C@H]7C[C@@H](C(C)(F)F)CN(CCc8c6[nH]c6ccc(C#N)cc86)C7)c(OC)cc5N(C)[C@H]4[C@@](O)(C(=O)OC)[C@@H]1OC(C)=O)[C@@H]32` stands 290 nM; under `CC[C@]12C=CCN3CC[C@@]4(c5cc([C@@]6(C(=O)OC)C[C@H]7C[C@@H](C(C)(F)F)CN(Cc8c6[nH]c6ccc(NC(=O)N(C)C)cc86)C7)c(OC)cc5N(C)[C@H]4[C@@](O)(C(=O)OC)[C@@H]1OC(C)=O)[C@@H]32`, greater than 100000 nM. Under `CC[C@]12C=CCN3CC[C@@]4(c5cc([C@@]6(C(=O)OC)C[C@H]7C[C@@H](C(C)(F)F)CN(CCc8c6[nH]c6ccc(C(C)=O)cc86)C7)c(OC)cc5N(C)[C@H]4[C@@](O)(C(=O)OC)[C@@H]1OC(C)=O)[C@@H]32` stands 4720 nM; under `CCC(=O)c1ccc2[nH]c3c(c2c1)CN1C[C@H](C[C@@H](C(C)(F)F)C1)C[C@]3(C(=O)OC)c1cc2c(cc1OC)N(C)[C@H]1[C@@](O)(C(=O)OC)[C@H](OC(C)=O)[C@]3(CC)C=CCN4CC[C@]21[C@@H]43`, 17400 nM; under `CC[C@]12C=CCN3CC[C@@]4(c5cc([C@@]6(C(=O)OC)C[C@H]7C[C@@H](C(C)(F)F)CN(Cc8c6[nH]c6ccc(C9CC9)cc86)C7)c(OC)cc5N(C)[C@H]4[C@@](O)(C(=O)OC)[C@@H]1OC(C)=O)[C@@H]32`, 120 nM. Under `CCOC(=O)c1ccc2[nH]c3c(c2c1)CN1C[C@H](C[C@@H](C(C)(F)F)C1)C[C@]3(C(=O)OC)c1cc2c(cc1OC)N(C)[C@H]1[C@@](O)(C(=O)OC)[C@H](OC(C)=O)[C@]3(CC)C=CCN4CC[C@]21[C@@H]43` stands 1030 nM; under `CCCCc1ccc2[nH]c3c(c2c1)CN1C[C@H](C[C@@H](C(C)(F)F)C1)C[C@]3(C(=O)OC)c1cc2c(cc1OC)N(C)[C@H]1[C@@](O)(C(=O)OC)[C@H](OC(C)=O)[C@]3(CC)C=CCN4CC[C@]21[C@@H]43`, 1880 nM. `CCNC(=S)Nc1ccc2[nH]c3c(c2c1)CN1C[C@H](C[C@@H](C(C)(F)F)C1)C[C@]3(C(=O)OC)c1cc2c(cc1OC)N(C)[C@H]1[C@@](O)(C(=O)OC)[C@H](OC(C)=O)[C@]3(CC)C=CCN4CC[C@]21[C@@H]43`: the IC50 worked out at 5680 nM. In the case of `CC[C@]12C=CCN3CC[C@@]4(c5cc([C@@]6(C(=O)OC)C[C@H]7C[C@@H](C(C)(F)F)CN(Cc8c6[nH]c6ccc(NC(=O)N9CCOCC9)cc86)C7)c(OC)cc5N(C)[C@H]4[C@@](O)(C(=O)OC)[C@@H]1OC(C)=O)[C@@H]32`, the IC50 is greater than 100000 nM.

Compound `CC[C@]12C=CCN3CC[C@@]4(c5cc([C@@]6(C(=O)OC)C[C@H]7C[C@@H](C(C)(F)F)CN(Cc8c6[nH]c6ccc(-c9ccc(F)cc9)cc86)C7)c(OC)cc5N(C)[C@H]4[C@@](O)(C(=O)OC)[C@@H]1OC(C)=O)[C@@H]32` gave an IC50 of 2560 nM.

`CC[C@]12C=CCN3CC[C@@]4(c5cc([C@@]6(C(=O)OC)C[C@H]7C[C@@H](C(C)(F)F)CN(Cc8c6[nH]c6ccc(-c9ccc(Cl)cc9)cc86)C7)c(OC)cc5N(C)[C@H]4[C@@](O)(C(=O)OC)[C@@H]1OC(C)=O)[C@@H]32`: the IC50 turned out to be 1170 nM. Compared with the last compound, the IC50 is about 2.2-fold lower. With `CCc1ccc2[nH]c3c(c2c1)CCN1C[C@H](C[C@@H](C(C)(F)F)C1)C[C@]3(C(=O)OC)c1cc2c(cc1OC)N(C)[C@H]1[C@@](O)(C(=O)OC)[C@H](OC(C)=O)[C@]3(CC)C=CCN4CC[C@]21[C@@H]43` the figure was 920 nM; with `CC[C@]12C=CCN3CC[C@@]4(c5cc([C@@]6(C(=O)OC)C[C@H]7C[C@@H](C(C)(F)F)CN(CCc8c6[nH]c6ccc(NC(C)=O)cc86)C7)c(OC)cc5N(C)[C@H]4[C@@](O)(C(=O)OC)[C@@H]1OC(C)=O)[C@@H]32`, 41000 nM.

In turn, `CC[C@]12C=CCN3CC[C@@]4(c5cc([C@@]6(C(=O)OC)C[C@H]7C[C@@H](C(C)(F)F)CN(Cc8c6[nH]c6ccc(C(=O)C9CC9)cc86)C7)c(OC)cc5N(C)[C@H]4[C@@](O)(C(=O)OC)[C@@H]1OC(C)=O)[C@@H]32` had an IC50 of 4450 nM. Under `CC[C@]12C=CCN3CC[C@@]4(c5cc([C@@]6(C(=O)OC)C[C@H]7C[C@@H](C(C)(F)F)CN(Cc8c6[nH]c6ccc(C(=O)OC(C)C)cc86)C7)c(OC)cc5N(C)[C@H]4[C@@](O)(C(=O)OC)[C@@H]1OC(C)=O)[C@@H]32` stands 3260 nM. Under `CC[C@]12C=CCN3CC[C@@]4(c5cc([C@@]6(C(=O)OC)C[C@H]7C[C@@H](C(C)(F)F)CN(Cc8c6[nH]c6ccc(-c9ccc(C#N)cc9)cc86)C7)c(OC)cc5N(C)[C@H]4[C@@](O)(C(=O)OC)[C@@H]1OC(C)=O)[C@@H]32` stands 2500 nM; under `CC[C@]12C=CCN3CC[C@@]4(c5cc([C@@]6(C(=O)OC)C[C@H]7C[C@@H](C(C)(F)F)CN(CCc8c6[nH]c6ccc(NS(C)(=O)=O)cc86)C7)c(OC)cc5N(C)[C@H]4[C@@](O)(C(=O)OC)[C@@H]1OC(C)=O)[C@@H]32`, 320 nM. With `CC[C@]12C=CCN3CC[C@@]4(c5cc([C@@]6(C(=O)OC)C[C@H]7C[C@@H](C(C)(F)F)CN(Cc8c6[nH]c6ccc(NC(=S)NC9CC9)cc86)C7)c(OC)cc5N(C)[C@H]4[C@@](O)(C(=O)OC)[C@@H]1OC(C)=O)[C@@H]32` the figure was 27500 nM; with `C#Cc1ccc2[nH]c3c(c2c1)CCN1C[C@H](C[C@@H](C(C)(F)F)C1)C[C@]3(C(=O)OC)c1cc2c(cc1OC)N(C)[C@H]1[C@@](O)(C(=O)OC)[C@H](OC(C)=O)[C@]3(CC)C=CCN4CC[C@]21[C@@H]43`, 50 nM; with `CC[C@]12C=CCN3CC[C@@]4(c5cc([C@@]6(C(=O)OC)C[C@H]7C[C@@H](C(C)(F)F)CN(CCc8c6[nH]c6ccc(N9CCCC9)cc86)C7)c(OC)cc5N(C)[C@H]4[C@@](O)(C(=O)OC)[C@@H]1OC(C)=O)[C@@H]32`, 640 nM. Compound `CC[C@]12C=CCN3CC[C@@]4(c5cc([C@@]6(C(=O)OC)C[C@H]7C[C@@H](C(C)(F)F)CN(Cc8c6[nH]c6ccc(-c9ccccc9Cl)cc86)C7)c(OC)cc5N(C)[C@H]4[C@@](O)(C(=O)OC)[C@@H]1OC(C)=O)[C@@H]32` had an IC50 of 1010 nM.

Compound `CC[C@]12C=CCN3CC[C@@]4(c5cc([C@@]6(C(=O)OC)C[C@H]7C[C@@H](C(C)(F)F)CN(Cc8c6[nH]c6ccc(-c9ccccc9C(F)(F)F)cc86)C7)c(OC)cc5N(C)[C@H]4[C@@](O)(C(=O)OC)[C@@H]1OC(C)=O)[C@@H]32` returned an IC50 of 290 nM. Against the preceding compound, the IC50 is about 3.5-fold lower. `CC[C@]12C=CCN3CC[C@@]4(c5cc([C@@]6(C(=O)OC)C[C@H]7C[C@@H](C(C)(F)F)CN(CCc8c6[nH]c6ccc(C(=O)OC)cc86)C7)c(OC)cc5N(C)[C@H]4[C@@](O)(C(=O)OC)[C@@H]1OC(C)=O)[C@@H]32`: the IC50 was found to be 8730 nM. With `CC[C@]12C=CCN3CC[C@@]4(c5cc([C@@]6(C(=O)OC)C[C@H]7C[C@@H](C(C)(F)F)CN(CCc8c6[nH]c6ccc(C)cc86)C7)c(OC)cc5N(C)[C@H]4[C@@](O)(C(=O)OC)[C@@H]1OC(C)=O)[C@@H]32` the figure was 37 nM; with `CC[C@]12C=CCN3CC[C@@]4(c5cc([C@@]6(C(=O)OC)C[C@H]7C[C@@H](C(C)(F)F)CN(Cc8c6[nH]c6ccc(NC(=O)C(F)(F)F)cc86)C7)c(OC)cc5N(C)[C@H]4[C@@](O)(C(=O)OC)[C@@H]1OC(C)=O)[C@@H]32`, 1810 nM; with `CC[C@]12C=CCN3CC[C@@]4(c5cc([C@@]6(C(=O)OC)C[C@H]7C[C@@H](C(C)(F)F)CN(Cc8c6[nH]c6ccc(-c9ccc(F)cc9F)cc86)C7)c(OC)cc5N(C)[C@H]4[C@@](O)(C(=O)OC)[C@@H]1OC(C)=O)[C@@H]32`, 1020 nM. Under `CC[C@]12C=CCN3CC[C@@]4(c5cc([C@@]6(C(=O)OC)C[C@H]7C[C@@H](C(C)(F)F)CN(Cc8c6[nH]c6ccc(NC(=O)C(Cl)Cl)cc86)C7)c(OC)cc5N(C)[C@H]4[C@@](O)(C(=O)OC)[C@@H]1OC(C)=O)[C@@H]32` stands 200 nM; under `CC[C@]12C=CCN3CC[C@@]4(c5cc([C@@]6(C(=O)OC)C[C@H]7C[C@@H](C(C)(F)F)CN(Cc8c6[nH]c6ccc(C(=O)OCc9ccccc9)cc86)C7)c(OC)cc5N(C)[C@H]4[C@@](O)(C(=O)OC)[C@@H]1OC(C)=O)[C@@H]32`, 280 nM. The compound `CC[C@]12C=CCN3CC[C@@]4(c5cc([C@@]6(C(=O)OC)C[C@H]7C[C@@H](C(C)(F)F)CN(CCc8c6[nH]c6ccc(-c9ccc(C)cc9)cc86)C7)c(OC)cc5N(C)[C@H]4[C@@](O)(C(=O)OC)[C@@H]1OC(C)=O)[C@@H]32` came in with an IC50 of 560 nM.

`CC[C@]12C=CCN3CC[C@@]4(c5cc([C@@]6(C(=O)OC)C[C@H]7C[C@@H](C(C)(F)F)CN(Cc8c6[nH]c6ccc(NC(=O)OC)cc86)C7)c(OC)cc5N(C)[C@H]4[C@@](O)(C(=O)OC)[C@@H]1OC(C)=O)[C@@H]32` showed an IC50 of 420 nM. With `CC[C@]12C=CCN3CC[C@@]4(c5cc([C@@]6(C(=O)OC)C[C@H]7C[C@@H](C(C)(F)F)CN(CCc8c6[nH]c6ccc(-c9ccccc9)cc86)C7)c(OC)cc5N(C)[C@H]4[C@@](O)(C(=O)OC)[C@@H]1OC(C)=O)[C@@H]32` the figure was 2160 nM; with `CC[C@]12C=CCN3CC[C@@]4(c5cc([C@@]6(C(=O)OC)C[C@H]7C[C@@H](C(C)(F)F)CN(Cc8c6[nH]c6ccc(-c9ccsc9)cc86)C7)c(OC)cc5N(C)[C@H]4[C@@](O)(C(=O)OC)[C@@H]1OC(C)=O)[C@@H]32`, 3000 nM.

As to `CC[C@]12C=CCN3CC[C@@]4(c5cc([C@@]6(C(=O)OC)C[C@H]7C[C@@H](C(C)(F)F)CN(Cc8c6[nH]c6ccc(NC(N)=O)cc86)C7)c(OC)cc5N(C)[C@H]4[C@@](O)(C(=O)OC)[C@@H]1OC(C)=O)[C@@H]32`, the IC50 was greater than 100000 nM. With `CC[C@]12C=CCN3CC[C@@]4(c5cc([C@@]6(C(=O)OC)C[C@H]7C[C@@H](C(C)(F)F)CN(Cc8c6[nH]c6ccc(N=[N+]=[N-])cc86)C7)c(OC)cc5N(C)[C@H]4[C@@](O)(C(=O)OC)[C@@H]1OC(C)=O)[C@@H]32` the figure was 160 nM. With `CC[C@]12C=CCN3CC[C@@]4(c5cc([C@@]6(C(=O)OC)C[C@H]7C[C@@H](C(C)(F)F)CN(Cc8c6[nH]c6ccc(NC(=O)NC)cc86)C7)c(OC)cc5N(C)[C@H]4[C@@](O)(C(=O)OC)[C@@H]1OC(C)=O)[C@@H]32` the figure was 35100 nM.
